For data set [1], the system named is livers of mice fed a high fat diet (HFD). Put plainly: Histological evaluation of livers by H&E staining, scored by Modified Brunt Criteria (five-week HFD model). Type of data set: in vivo, C57BL mice. Particulars: end of week 5; for Portal inflammation / Ballooning and disarray / Fibrosis: score per liver section; for Ballooning and disarray: * = and megakarya; for Fibrosis: ** = oval cell proliferation. On the procedure: For liver histology, animals were sacrificed and liver tissues were removed and fixed in 4% formalin at room temperature. Liver sections were subjected to Hematoxylin-Eosin staining (PathoVet Veterinary Pathology Services, Rehovot, Israel).
Histological evaluation of livers was performed by H&E staining at the end of week 5. In the figure, arrows indicate micro and macrovesicular steatosis, and arrow heads indicate hepatocyte ballooning. […] This histological observation was in correlation with the elevated levels of blood liver enzymes SGOT and SGPT described above.

Data set [2] relates to mice fed a high fat diet (HFD). Put plainly: High fat diet (HFD) model in mice, five-week feeding with supplemented diets.
Data set [3] deals with mice fed a high fat diet (HFD). Conditions: for Liver weight: FIG. 12d. The source says:
Mice were randomly divided into two dietary groups:
1) Control diet: low-fat diet (LFD), 16% calories from fat (n=5);
2) High-fat diet (HFD): 60% calories from fat (mainly palm stearin) (n=16).
In order to determine the effects of CDCArg following the onset of liver steatosis, mice were first treated for 10 weeks with HFD to develop hepatic fat accumulation. Thereafter, the HFD-fed mice were divided to two equal groups (n=8 in each group): (a) continued the previous HFD treatment, and (b) HFD+CDCArg 0.5% w/w. In this part of the experiment mice were pair-fed (15.5 kCal/day per mice). The LFD control group consumed on average the same amount of calories per day per mice. The duration of treatment with CDCArg was four (4) weeks. Food consumption and gain of weight were evaluated.
To assess the impact of CDCArg on intestinal absorption, fecal lipid contents were measured before and after CDCArg consumption. Total lipids were extracted from feces using Folch's method (Folch et al., 1957, J Biol Chem, 226:497-509) after collecting feces during weeks 9-10 and 12-13. […] The effect of CDCArg on insulin resistance was evaluated using intraperitoneal glucose tolerance test (IPGTT). Glucose tolerance was assessed in the mice during the eighth and fourteenth weeks of the study (before and after the beginning of treatment with CDCArg). IPGTT was performed in 12 hours-fasted mice by injecting glucose (2 g/kg in 20% solution) intraperitoneally. Blood samples were obtained by cutting the tail tip and glucose concentration was measured after 0, 30, 60, 90, and 120 minutes.

The test system of data set [4] is mice fed a high fat diet (HFD). Put plainly: Intraperitoneal glucose tolerance test (IPGTT) in HFD-fed mice. Particulars: week fourteen; glucose 2 g/kg i.p., 12 hours-fasted; FIG. 11. It is filed as in vivo. The source says:
FIG. 11. Effect of CDCArg on insulin resistance as evaluated by intra-peritoneal glucose tolerance test (IPGTT). (A) IPGTT performed at weeks eight and (B) fourteen (before and after the beginning of treatment). Values are expressed as mean±SEM (n=8-9 animals per group). Means with * are statistically higher than Control group, p<0.05 (t.test (a) one way ANOVA, Post Hoc dunnett test (b)).

Data set [5] deals with PGC1α. Put plainly: Liver gene expression, mRNA by reverse-transcription and real time PCR. Type of data set: in vivo, mice. Particulars: GAPDH normalizing gene; FIG. 13A. The text has this: (§1) FIG. 13. Effect of CDCArg on lipogenic gene expression and energy expenditure related genes in the liver. Treatments: mice were fed with LFD for 14 weeks or with HFD for 10 weeks. At week 10 the HFD group was divided randomly into two equal groups that were pair fed. One group received HFD, while the other group received HFD+CDCArg. mRNA levels of (A) PGC1α, (B) PPARα. (C) Protein level of sterol regulatory element binding protein 1c (SREBP1). *p<0.05, statistically different from control by student t-test. GAPDH was used as housekeeping normalizing gene.
(§2) Gene expression analyses of PPARα and PGC1α were performed by quantifying mRNA levels by reverse-transcription and real time PCR. GAPDH (glyceraldehyde 3-phosphate dehydrogenase) was used as housekeeping normalizing gene. The following primers were used: […]

Data set [6] has as its system PPARα. Described as above. Type of data set: in vivo, mice. Conditions: GAPDH normalizing gene; FIG. 13B.
Source text: as §1, §2

Data set [7] relates to SREBP1c. Put plainly: Liver protein level by Western blot. Type of data set: in vivo, mice. Particulars: beta-actin as control; FIG. 13C.
Source text: as §1
SREBP1c was analyzed by Western blot analysis using beta-actin as control. Abs: Anti SREBP-1 Santa Cruse (Sc-367); Secondary goat Anti-Rabbit IgG, Jackson ImmunoResearch, Mouse Anti-Actin (612656) BD Transduction Laboratories. Secondary goat Anti-mouse IgG, Jackson ImmunoResearch.
In general terms: In western blotting, separated proteins are transferred to a membrane and probed.

For data set [8], the system named is AMPK. Put plainly: Liver AMPK and pAMPK levels by Western blot. It is filed as in vivo, mice. On the procedure:
The levels of AMPK and pAMPK were analyzed using Western blot analysis.

The test system of data set [9] is mice fed a high fat diet (HFD). Conditions: mouse, in vivo.

This note sets out measurements from patent US9884066B2, “Bile acid-basic amino acid conjugates and uses thereof” (priority 2013, dated 2018).

Values joined by “and” are separate entries in the source; they are usually repeats but may differ in a detail not shown here. Equal values may be shown once. Read-outs that look alike come from different tables or passages of the source.

Regarding `N=C(N)NCCC[C@H](N)C(=O)O` [Arg, L-arginine, reference compound], the “Liver damage by histology (H&E staining)” value in data set [1] (FIG. 9) was “increased liver damage”. Moreover, in data set [1], the Portal inflammation is 0; the Ballooning and disarray is 0; the Fibrosis is 0. Also, the “Average triglycerides in the blood” value in data set [2] (end of week 5, FIG. 5a) is listed as “higher level of blood triglycerides”. Besides, the “Average total cholesterol in the blood” value in data set [2] (end of week 5, compared to control low fat diet, FIG. 4) is “significantly increased levels of total blood cholesterol”.

In the case of `CCOC(=O)[C@H](CCCNC(=N)N)NC(=O)CC[C@@H](C)[C@H]1CC[C@H]2[C@@H]3[C@H](O)C[C@@H]4C[C@H](O)CC[C@]4(C)[C@H]3CC[C@]12C` [CDCArg, Chenodeoxycholyl-Arginine-Ethyl Ester], in [1], the Portal inflammation is 0 and 1; the Ballooning and disarray was found to be 0; the Fibrosis amounted to 0. Moreover, in [3] (HFD+CDCArg 0.5% w/w for 4 weeks after 10 weeks HFD, vs continued HFD, FIG. 10a), the Body weight gain entry is reported as “prevented this weight gain”. The Adipose tissue weight result in data set [3] (HFD+CDCArg compared to the HFD group, FIG. 10b) was “substantially lower”. Moreover, the “Liver micro and macro steatosis (histological evaluation)” value in [3] (HFD+CDCArg vs HFD group, FIG. 12e) was “lesser liver micro and macro steatosis”. The Liver weight result in [3] (HFD+CDCArg vs HFD group) is “significantly lower”. Besides, the Liver weight result in data set [3] (HFD+CDCArg vs control (LFD) group) is “even lesser than in control”. Also, in [3] (mouse, in vivo), the “Alkaline phosphatase levels in plasma” value was “not significantly altered” and the Plasma albumin levels entry is reported as “significantly higher”. Also, the SGPT levels result in data set [3] (plasma, HFD+CDCArg compared with the HFD group, FIG. 12a) is “significantly lower”. Besides, the SGOT levels entry in data set [3] (plasma, HFD+CDCArg compared with the HFD group, FIG. 12b) is “significantly lower”. Besides, the “Fat contents in feces” value in data set [3] (weeks 12-13, Folch's method, FIG. 10d) was “significantly higher”. In data set [4], the “Area under the curve of the glycemic response (IPGTT)” value is on record as “decreasing the area under the curve of the glycemic response” and the “Peak glucose values in the IPGTT” value is “lowering the peak glucose values”. Besides, in data set [5], the “PGC1α mRNA level in the liver” value is listed as “activated”. Besides, the “PPARα mRNA level in the liver” value in data set [6] was “activated”. Further, in data set [7], the “SREBP1c protein expression in the liver” value is given as “suppress the protein expression”. Moreover, in data set [8], the “Ratio of phosphorylated AMPK (pAMPK) to AMPK” value is reported as “tending to be higher”. In addition, in data set [9], the “General toxicity (plasma creatinine, sodium, potassium and chloride levels)” value is “without toxicity effects”; the “Saturated fat-induced liver damage (blood SGOT, SGPT)” value is recorded as “did not potentiate saturated fat-induced liver damage”. Further, in data set [2] (end of week 5, compared to HFD alone or HFD+Arg, FIG. 3), the “Average weight of adipose tissue (testicular fat)” value is given as “significantly lower increase in testicular fat weight”. Also, the Average liver weight entry in [2] (end of week 5, compared to control diet, FIG. 7) was “no difference in liver weight compared to control”. For the same compound, the “Average body weight (increase)” value in [2] (five weeks, among groups that consumed a high fat diet, FIG. 2) was “lowest increase in body weight”. Besides, the “Plasma level of insulin” value in data set [2] (five weeks, compared to the HFD group, FIG. 8b) is given as “significantly decreased”. Moreover, the “Plasma level of leptin” value in [2] (five weeks, compared to the HFD group, FIG. 8c) was “significantly decreased”.
